Experimental data from patent publication US12209087B2, “AKT1 modulators” (Alterome Therapeutics, Inc., priority 2022, dated 2025).

target: T1, full length AKT E17K (Homo sapiens, UniProt P31749, E17K); assay: NanoBRET Target Engagement (TE) Assay; type: cell-based; conditions: competitive displacement of tracer in cells, read-out: AKT1 E17K IC50
T1 construct: host or cells: HEK-293 (ATCC CRL-1573)
Procedure, shortened: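 Compound and tracer incubated 2 h before luminescence at donor 450 nm and acceptor 600 nm, with extracellular signal inhibited. EC50 by sigmoidal variable-slope regression.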

T1 sequence (P31749 whole entry E17K): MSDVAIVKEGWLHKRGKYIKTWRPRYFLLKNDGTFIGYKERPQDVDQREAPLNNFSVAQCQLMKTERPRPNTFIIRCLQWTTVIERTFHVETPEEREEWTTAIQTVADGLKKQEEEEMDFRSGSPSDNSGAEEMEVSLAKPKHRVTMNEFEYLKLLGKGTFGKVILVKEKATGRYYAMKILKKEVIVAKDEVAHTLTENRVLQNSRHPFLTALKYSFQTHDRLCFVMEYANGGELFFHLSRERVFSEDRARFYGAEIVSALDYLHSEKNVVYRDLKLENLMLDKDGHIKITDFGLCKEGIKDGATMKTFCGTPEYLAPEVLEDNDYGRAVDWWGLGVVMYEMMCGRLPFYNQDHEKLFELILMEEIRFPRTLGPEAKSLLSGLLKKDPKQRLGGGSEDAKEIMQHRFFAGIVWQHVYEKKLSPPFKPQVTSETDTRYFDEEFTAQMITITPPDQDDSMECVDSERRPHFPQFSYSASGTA

Row | Structure (SMILES) | IC50
1 | N#Cc1nccc(NC2CCN(Cc3ccc(-n4c(-c5cccnc5N)nc5ccc(-c6ccc(F)c(O)c6)nc54)cc3)CC2)n1 [Example 545, 4-((1-(4-(2-(2-Aminopyridin-3-yl)-5-(4-fluoro-3-hydroxyphenyl)-3H-imidazo[4,5-b]pyridin-3-yl)benzyl)piperidin-4-yl)amino)pyrimidine-2-carbonitrile] | < 15 nM
2 | N#Cc1nccc(NC2CCN(Cc3ccc(-n4c(-c5cccnc5N)nc5ccc(-c6ccc(F)cc6F)nc54)cc3)CC2)n1 [Example 475, 4-((1-(4-(2-(2-Aminopyridin-3-yl)-5-(2,4-difluorophenyl)-3H-imidazo[4,5-b]pyridin-3-yl)benzyl)piperidin-4-yl)amino)pyrimidine-2-carbonitrile] | < 15 nM
3 | [2H]C([2H])(F)Oc1ccc(-c2ccc3nc(-c4nccnc4N)n(-c4ccc(CN5CCC(Nc6ccnc(C#N)n6)CC5)cc4)c3n2)cn1 [Example 640, 4-((1-(4-(2-(3-Aminopyrazin-2-yl)-5-(6-(fluoromethoxy-d2)pyridin-3-yl)-3H-imidazo[4,5-b]pyridin-3-yl)benzyl)piperidin-4-yl)amino)pyrimidine-2-carbonitrile] | < 15 nM
4 | Cn1cc(-c2ccc3nc(-c4cccnc4N)n(-c4ccc(CN5CCC(Nc6ccnc(C#N)n6)CC5)cc4)c3n2)nn1 [Example 438, 4-((1-(4-(2-(2-Aminopyridin-3-yl)-5-(1-methyl-1H-1,2,3-triazol-4-yl)-3H-imidazo[4,5-b]pyridin-3-yl)benzyl)piperidin-4-yl)amino)pyrimidine-2-carbonitrile] | < 15 nM
5 | N#Cc1nccc(NC2CCN(Cc3ccc(-n4c(-c5cccnc5N)nc5ccc(-c6ccccc6C#N)nc54)cc3)CC2)n1 [Example 335, 4-((1-(4-(2-(2-Aminopyridin-3-yl)-5-(2-cyanophenyl)-3H-imidazo[4,5-b]pyridin-3-yl)benzyl)piperidin-4-yl)amino)pyrimidine-2-carbonitrile] | < 15 nM
6 | N#Cc1cc(N2CCN(Cc3ccc(-n4c(-c5cccnc5N)nc5ccc(-c6cccc(=O)[nH]6)nc54)cc3)CC2)ncn1 [Example 334, 6-(4-(4-(2-(2-Aminopyridin-3-yl)-5-(6-oxo-1,6-dihydropyridin-2-yl)-3H-imidazo[4,5-b]pyridin-3-yl)benzyl)piperazin-1-yl)pyrimidine-4-carbonitrile] | 15 to 60 nM
7 | N#Cc1nccc(NC2CCN(Cc3ccc(-n4c(-c5cccnc5N)nc5ccc(-c6ccccn6)nc54)cc3)CC2)n1 [Example 495, 4-((1-(4-(2-(2-Aminopyridin-3-yl)-5-(pyridin-2-yl)-3H-imidazo[4,5-b]pyridin-3-yl)benzyl)piperidin-4-yl)amino)pyrimidine-2-carbonitrile] | < 15 nM
8 | Cn1ncc(-c2ccc3nc(-c4cccnc4N)n(-c4ccc(CN5CCC(Nc6ccnc(C#N)n6)CC5)cc4)c3n2)n1 [Example 472, 4-((1-(4-(2-(2-Aminopyridin-3-yl)-5-(2-methyl-2H-1,2,3-triazol-4-yl)-3H-imidazo[4,5-b]pyridin-3-yl)benzyl)piperidin-4-yl)amino)pyrimidine-2-carbonitrile] | < 15 nM
9 | N#Cc1nccc(NC2CCN(Cc3ccc(-n4c(-c5cccnc5N)nc5ccc(-c6cccnc6)nc54)cc3)CC2)n1 [Example 431, 4-((1-(4-(2-(2-Aminopyridin-3-yl)-5-(pyridin-3-yl)-3H-imidazo[4,5-b]pyridin-3-yl)benzyl)piperidin-4-yl)amino)pyrimidine-2-carbonitrile] | < 15 nM
10 | N#Cc1nccc(NC2CCN(Cc3ccc(-n4c(-c5cccnc5N)nc5ccc(C(=O)O)nc54)cc3)CC2)n1 [Example 415, 2-(2-Aminopyridin-3-yl)-3-(4-((4-((2-cyanopyrimidin-4-yl)amino)piperidin-1-yl)methyl)phenyl)-3H-imidazo[4,5-b]pyridine-5-carboxylic acid] | 600 to 10000 nM
11 | C[S+]([O-])c1ccc2nc(-c3cccnc3N)n(-c3ccc(CN4CCC(Nc5ccnc(C#N)n5)CC4)cc3)c2n1 (stereo not drawn) [Example 492, 4-((1-(4-(2-(2-Aminopyridin-3-yl)-5-(methylsulfinyl)-3H-imidazo[4,5-b]pyridin-3-yl)benzyl)piperidin-4-yl)amino)pyrimidine-2-carbonitrile] | 60 to 600 nM
12 | [2H]C([2H])(c1ccc(-n2c(-c3cccnc3N)nc3cc(C)c(C)nc32)cc1)N1CCC(Nc2ccnc(C#N)n2)CC1 [Example 504, 4-((1-((4-(2-(2-Aminopyridin-3-yl)-5,6-dimethyl-3H-imidazo[4,5-b]pyridin-3-yl)phenyl)methyl-d2)piperidin-4-yl)amino)pyrimidine-2-carbonitrile] | < 15 nM
13 | N#Cc1nccc(N2CCN(Cc3ccc(-n4c(-c5cccnc5N)nc5ccc(C6=CCCCC6)nc54)cc3)CC2)n1 [Example 329, 4-(4-(4-(2-(2-Aminopyridin-3-yl)-5-(cyclohex-1-en-1-yl)-3H-imidazo[4,5-b]pyridin-3-yl)benzyl)piperazin-1-yl)pyrimidine-2-carbonitrile] | 15 to 60 nM
14 | N#Cc1ccnc(-c2ccc3nc(-c4cccnc4N)n(-c4ccc(CN5CCC(Nc6ccnc(C#N)n6)CC5)cc4)c3n2)c1 [Example 548, 4-((1-(4-(2-(2-Aminopyridin-3-yl)-5-(4-cyanopyridin-2-yl)-3H-imidazo[4,5-b]pyridin-3-yl)benzyl)piperidin-4-yl)amino)pyrimidine-2-carbonitrile] | < 15 nM
15 | COc1ccnc(-c2ccc3nc(-c4cccnc4N)n(-c4ccc(CN5CCC(Nc6ccnc(C#N)n6)CC5)cc4)c3n2)c1 [Example 437, 4-((1-(4-(2-(2-Aminopyridin-3-yl)-5-(4-methoxypyridin-2-yl)-3H-imidazo[4,5-b]pyridin-3-yl)benzyl)piperidin-4-yl)amino)pyrimidine-2-carbonitrile] | < 15 nM
16 | C[C@@H]1CN(Cc2ccc(-n3c(-c4cccnc4N)nc4ccc(-c5ccccc5)nc43)cc2)C[C@H](C)N1c1ccnc(C#N)n1 [Example 378, 4-((2S,6R)-4-(4-(2-(2-Aminopyridin-3-yl)-5-phenyl-3H-imidazo[4,5-b]pyridin-3-yl)benzyl)-2,6-dimethylpiperazin-1-yl)pyrimidine-2-carbonitrile] | 60 to 600 nM
17 | CC(C)Oc1ccc2nc(-c3cccnc3N)n(-c3ccc(CN4CCC(Nc5ccnc(C#N)n5)CC4)cc3)c2n1 [Example 425, 4-((1-(4-(2-(2-Aminopyridin-3-yl)-5-isopropoxy-3H-imidazo[4,5-b]pyridin-3-yl)benzyl)piperidin-4-yl)amino)pyrimidine-2-carbonitrile] | < 15 nM
18 | N#Cc1ncnc(NC2CC3(CCN(Cc4ccc(-n5c(-c6cccnc6N)nc6ccc(N7CCOCC7)nc65)cc4)CC3)C2)n1 [Example 434, 4-((7-(4-(2-(2-Aminopyridin-3-yl)-5-morpholino-3H-imidazo[4,5-b]pyridin-3-yl)benzyl)-7-azaspiro[3.5]nonan-2-yl)amino)-1,3,5-triazine-2-carbonitrile] | 15 to 60 nM

same assay, conditions: competitive tracer displacement in living cells, read-out: AKT1 E17K IC50

Row | Structure (SMILES) | IC50
19 | N#Cc1ccnc(NC2CCN(Cc3ccc(-n4c(-c5cccnc5N)nc5ccc(-c6ccccc6Cl)nc54)cc3)CC2)n1 [Example 306, 2-((1-(4-(2-(2-Aminopyridin-3-yl)-5-(2-chlorophenyl)-3H-imidazo[4,5-b]pyridin-3-yl)benzyl)piperidin-4-yl)amino)pyrimidine-4-carbonitrile] | 15 to 60 nM
20 | N#Cc1cc(NC2CCN(Cc3ccc(-n4c(-c5cccnc5N)nc5ccc(C6CC6)nc54)cc3)CC2)ncn1 [Example 291, 6-((1-(4-(2-(2-Aminopyridin-3-yl)-5-cyclopropyl-3H-imidazo[4,5-b]pyridin-3-yl)benzyl)piperidin-4-yl)amino)pyrimidine-4-carbonitrile] | 15 to 60 nM
21 | N#Cc1cccc(C(=O)NC2CCN(Cc3ccc(-n4c(-c5cccnc5N)nc5ccc(-c6ccccc6)nc54)cc3)CC2)n1 [Example 56, N-(1-(4-(2-(2-Aminopyridin-3-yl)-5-phenyl-3H-imidazo[4,5-b]pyridin-3-yl)benzyl)piperidin-4-yl)-6-cyanopicolinamide] | < 15 nM
22 | N#Cc1ccncc1C(=O)NCc1ccc(-n2c(-c3cccnc3N)nc3cccnc32)cc1 [Example 100, N-(4-(2-(2-Aminopyridin-3-yl)-3H-imidazo[4,5-b]pyridin-3-yl)benzyl)-4-cyanonicotinamide] | 600 to 10000 nM
23 | N#Cc1nccc(C(=O)N2CCN(Cc3ccc(-n4c(-c5cccnc5N)nc5ccc(-c6ccccc6)nc54)cc3)CC2)n1 [Example 141, 4-(4-(4-(2-(2-Aminopyridin-3-yl)-5-phenyl-3H-imidazo[4,5-b]pyridin-3-yl)benzyl)piperazine-1-carbonyl)pyrimidine-2-carbonitrile] | < 15 nM
24 | N#Cc1ccnc(N2CCN(Cc3ccc(-n4c(-c5cccnc5N)nc5ccc(N6CCCNC(=O)C6)nc54)cc3)CC2)n1 [Example 283, 2-(4-(4-(2-(2-Aminopyridin-3-yl)-5-(3-oxo-1,4-diazepan-1-yl)-3H-imidazo[4,5-b]pyridin-3-yl)benzyl)piperazin-1-yl)pyrimidine-4-carbonitrile] | 15 to 60 nM
25 | N#Cc1ccnc(N2CCN(Cc3ccc(-n4c(-c5cccnc5N)nc5ccc(-c6ccc(F)cc6)nc54)cc3)CC2)n1 [Example 243, 2-(4-(4-(2-(2-Aminopyridin-3-yl)-5-(4-fluorophenyl)-3H-imidazo[4,5-b]pyridin-3-yl)benzyl)piperazin-1-yl)pyrimidine-4-carbonitrile] | 60 to 600 nM
26 | N#Cc1ccc(C(=O)NC2CCN(Cc3ccc(-n4c(-c5cccnc5N)nc5cccnc54)cc3)CC2)cn1 [Example 24, N-(1-(4-(2-(2-Aminopyridin-3-yl)-3H-imidazo[4,5-b]pyridin-3-yl)benzyl)piperidin-4-yl)-6-cyanonicotinamide] | 600 to 10000 nM
27 | C[C@H]1CN(Cc2ccc(-n3c(-c4cccnc4N)nc4ccc(-c5ccccc5)nc43)cc2)CCN1c1ncnc(C#N)n1 [Example 274, (S)-4-(4-(4-(2-(2-Aminopyridin-3-yl)-5-phenyl-3H-imidazo[4,5-b]pyridin-3-yl)benzyl)-2-methylpiperazin-1-yl)-1,3,5-triazine-2-carbonitrile] | 15 to 60 nM
